Assays:
P388 leukemia cells [1] = experiment: Viable P388 leukemia cells in cell culture (trypan blue); conditions: 48 hours, 37° C.
P388 leukemia cells [2] = experiment: IP injection study in vivo, P388 leukemia in DBA/2 mice; conditions: in vivo experiment 4, daily IP injections
Description: Mice were 26-27 days old. […] Purina mouse chow was supplied ad libitum.
In experiments 3 & 4 (Tables 12a & 13a) the DBA/2 mouse was used.
DNA was determined on total cells with no differentiation between viable and non-viable cells.

[3] = in vitro experiment 1, 8 ml treatment
[4] = in vitro experiment 2, 2 ml treatment

With `O=C(O)c1cc(=O)[nH]c(=O)[nH]1` [Orotic Acid, orotic acid] the “% Inhibition Based on Ringers Locke Control” value (P388 leukemia cells [1]; [3]) was 11%, the “Numbers of Viable P388 Cells/ml” value (P388 leukemia cells [1]; [3]) was “.66 × 10^6 ± 3500 Cells/ml” and the “% Inhibition Based on Extraction Blank” value (P388 leukemia cells [1]; [4]) was “Stimulation”. For the same compound, the “% Inhibition Based on PBS Control” value (P388 leukemia cells [1]; [4]) was “Stimulation”, the “Numbers of Viable P388 Cells/ml” value (P388 leukemia cells [1]; [4]) was 1.90 × 10^6 ± 7100 Cells/ml and the “% Inhibition (numbers of viable P388 cells)” value (P388 leukemia cells [2]) was 38%. The “DNA Content” value (P388 leukemia cells [2]) was 428 µg/mL and the “Numbers of Viable P388 Cells/ml” value (P388 leukemia cells [2]) was 4.20 × 10^7 ± 630000 cells/ml.

Source: patent publication US5019390A, “Anticancer agent--IMIC” (Research Corporation Technologies, Inc., priority 1987, dated 1991)
